Legend:
CB2 receptor = details: intraperitoneal administration; cited from earlier work
[1] = test system: human-derived keratinocyte, HaCaT; test: IL-1b release from HaCaT under poly (I:C)-induced allergic contact dermatitis conditions (ELISA); format: cell-based; details: 10 μM, poly (I:C) 15 ng/ml, 24 hours
Protocol: First, a human-derived keratinocyte, HaCaT, was dispensed in a 24-well plate together with a Dulbecco's modified eagle's medium (DMEM) containing 10% fetal bovine serum (FBS), and cultured at 37° C. under 5% CO2 culture conditions for 24 hours. Afterwards, while inducing allergic contact dermatitis conditions to the HaCat with 15 ng/ml of poly (I:C), each of Example 1 (hydroxy-α-sanshool) and Example 2 (hydroxy-γ-sanshool), which were each dissolved in dimethyl sulfoxide (DMSO), were treated at 10 μM and dissolved in the medium. After 24 hours, each medium was collected, and IL-1b ELISA kit (R&D systems) was used to measure an amount of cytokine IL-1b according to a manufacturer's method.

[2] = test system: normal human epidermal cells, keratinocyte; test: β-endorphin secretion from normal human epidermal keratinocytes (β-endorphin EIA kit); format: cell-based; details: for amount of β-endorphin secreted from keratinocyte: 10 μM, six hours, compared to control group (FIG. 1, FIG. 2); for β-endorphin production effect: six hours (FIG. 3)
Protocol: First, normal human epidermal cells, keratinocyte (Gibco), were cultured from a 6-well plate to a confluence point at 37° C. under 5% CO2 culture conditions. In an embodiment of the present disclosure, a keratinocyte-SFM (Gibco) medium was treated with 10 μM of each of hydroxy-α-sanshool (CHEMFACES®; Example 1), hydroxy-γ-sanshool (Chengdu Biopurify Phytochemicals Ltd.; Example 2), hydroxy-β-sanshool (Chengdu Biopurify Phytochemicals Ltd.; Example 3), hydroxy-ε-sanshool (Chengdu Biopurify Phytochemicals Ltd.; Example 4), cannabidiol (CBD) (Sigma-Aldrich®; Comparative Example 1), honokiol (Sigma-Aldrich®; Comparative Example 2), magnolol (Sigma-Aldrich®; Comparative Example 3), and palmitoylethanolamide (PEA) (Sigma-Aldrich®; Comparative Example 4), which are known as CB2 agonists as Comparative Examples, and cultured at 37° C. for six hours under 5% CO2 culture conditions. Afterwards, each medium was collected, and a β-endorphin EIA kit (EK-022-14, Phoenix pharmaceuticals, Belmont, Calif.) was used to quantify an amount of β-endorphin secreted from keratinocyte in each medium. Student t-test was used for statistical significance between specimens, and when a value of p-value is less than or equal to 0.05, it was analyzed as statistically significant. (*p<0.05, **p<0.01, ***p<0.001)
First, normal human epidermal cells, keratinocyte (Gibco), were cultured from a 6-well plate to a confluence point at 37° C. under 5% CO2 culture conditions. […] Afterwards, each medium was collected, and a β-endorphin EIA kit (EK-022-14, Phoenix pharmaceuticals, Belmont, Calif.) was used to quantify an amount of β-endorphin secreted from keratinocyte in each medium. Student t-test was used for statistical significance between specimens, and when a value of p-value is less than or equal to 0.05, it was analyzed as statistically significant. (*p<0.05, **p<0.01, ***p<0.001)

[3] = sanshool-containing drug ingested; cited from earlier work

**Q.** For `CN1CCCCC1Cn1cc(C(=O)c2cc([N+](=O)[O-])ccc2I)c2ccccc21` (centres unmarked) [AM1241], which endorphin secretion (CB2 receptor) is on record?
**A.** had an effect on inducing endorphin secretion

**Q.** With `C/C=C/C=C/C=C\CC/C=C/C(=O)NCC(C)(C)O` [Example 1, hydroxy-α-sanshool] as the compound, how does the IL-1b [1] read?
**A.** 11.29 pg/mL

**Q.** For `C/C=C/C=C/C=C\CC/C=C/C=C/C(=O)NCC(C)(C)O` [Example 2, hydroxy-γ-sanshool], which IL-1b [1] is on record?
**A.** 11.2 pg/mL

**Q.** For `C=CCc1ccc(O)c(-c2ccc(O)c(CC=C)c2)c1` [honokiol, reference compound], which “amount of β-endorphin secreted from keratinocyte” value [2] is on record?
**A.** further decrease in an amount of β-endorphin secretion compared to a control group

**Q.** Which “amount of β-endorphin secreted from keratinocyte” value [2] does the source give for `C=CCc1ccc(O)c(-c2cc(CC=C)ccc2O)c1` [magnolol, reference compound] here?
**A.** further decrease in an amount of β-endorphin secretion compared to a control group

**Q.** With sanshool as the compound, how does the β-endorphin production effect ([2]; 0.00006 wt %) read?
**A.** β-endorphin production effect was not shown

**Q.** What about the β-endorphin production effect ([2]; 0.006 wt % as printed) of the same compound?
**A.** production of β-endorphin was induced

**Q.** And the presence in plasma [3]?
**A.** remained in plasma

From US20220241168A1, “COMPOSITION FOR STIMULATING BETA-ENDORPHIN PRODUCTION COMPRISING SANSHOOL” (AMOREPACIFIC CORPORATION, priority 2021, published 2022)
